Experimental data from patent publication US7279179B2, “Liposome-entrapped topoisomerase inhibitors” (ALZA Corporation, priority 1988, dated 2007).

Legend:
[1] = tested on: HT-29 colon cancer xenograft; assay: HT-29 xenograft efficacy of liposome-entrapped CKD-602 (Example 5); format: in vivo, mice
[2] = Plasma pharmacokinetics of liposome-entrapped and free CKD-602 in rats; details: 1 mg/kg
in vivo = details: rat
[3] = Plasma pharmacokinetics of liposome-entrapped and free topotecan in rats; format: in vivo; details: for Vol. Dist. / elimination rate constant: i.v.; for AUC / Cmax / clearance / half-life: rat, plasma, iv; for half-life: read-out: T ½ (converted)
Description: FIGS. 4A–4B show the plasma concentration of topotecan as a function of time after administration to rats. […] FIG. 4B compares the two forms of the drug at a dosage of 5 mg/kg.

[4] = tested on: HT-29 subcutaneous xenograft tumor; format: in vivo
[5] = 20 mg/kg i.v. days 11, 18, 25, animals/group
[6] = 25 mg/kg i.v. days 9, 16, 23, groups of 12 mice

**Q.** For `CC[C@@]1(O)C(=O)OCc2c1cc1n(c2=O)Cc2c-1nc1ccccc1c2CCNC(C)C` [free CKD602], which tumor growth rate ([1]; 20 mg/kg) is on record?
**A.** Its tumor growth rate is 15.21 mm^3 per day.

**Q.** What about the “% T/C Day 29” value ([1]; 20 mg/kg i.v. days 11, 18, 25) of the same molecule?
**A.** The value was 129.1%.

**Q.** What about the “% T/C Day 33” value ([1]; 20 mg/kg i.v. days 11, 18, 25) of the same molecule?
**A.** Its value is 120.1%.

**Q.** And the “% T/C Day 36” value ([1]; 20 mg/kg i.v. days 11, 18, 25)?
**A.** The value was 99.9%.

**Q.** What about the “Complete Remission” value [1, 5] of the same molecule?
**A.** The value was 0/6.

**Q.** And the Non-Responsive [1, 5]?
**A.** Its Non-Responsive is 6/6.

**Q.** What about the “Partial Remission” value [1, 5] of the same molecule?
**A.** Its value is 0/6.

**Q.** What about the AUC [2] of the same molecule?
**A.** Its AUC is 0.37 µg/mL/h.

**Q.** What about the calculated half-life [2] of the same molecule?
**A.** Its calculated half-life is 12 min.

**Q.** With `CC[C@@]1(O)C(=O)OCc2c1cc1n(c2=O)Cc2c-1nc1cc3c(cc1c2CN1CCN(C)CC1)OCCO3` [free MPE-camptothecin, 7-(4-methyl-piperazino-methylene)-10,11-ethylenedioxy-20(S)-camptothecin] as the molecule, how does the half-life (in vivo) read?
**A.** The half-life was ~50 min.

**Q.** Which results are given for `CC[C@@]1(O)C(=O)OCc2c1cc1n(c2=O)Cc2cc3c(CN(C)C)c(O)ccc3nc2-1` [free topotecan, 9-dimethyl-aminomethyl-10-hydroxycamptothecin]?
**A.** Vol. Dist. ([3]; Dosage = 2 mg/kg): 173 mL; elimination rate constant ([3]; Dosage = 2 mg/kg): 3.45 h⁻¹; Vol. Dist. ([3]; Dosage = 5 mg/kg): 278 mL; elimination rate constant ([3]; Dosage = 5 mg/kg): 2.33 h⁻¹; AUC ([3]; Dosage = 2 mg/kg): 570 ng·h/mL; Cmax ([3]; Dosage = 2 mg/kg): 2890 ng/mL; clearance ([3]; Dosage = 2 mg/kg): 14.8 mL/min; half-life ([3]; Dosage = 2 mg/kg): 12 min; AUC ([3]; Dosage = 5 mg/kg): 1570 ng·h/mL; Cmax ([3]; Dosage = 5 mg/kg): 8230 ng/mL; clearance ([3]; Dosage = 5 mg/kg): 13.7 mL/min; half-life ([3]; Dosage = 5 mg/kg): 18 min; tumor growth rate ([4]; 25 mg/kg): 14.1 mm^3 per day; % T/C Day 29 ([4]; 25 mg/kg i.v. days 9, 16, 23): 82.8%; % T/C Day 33 ([4]; 25 mg/kg i.v. days 9, 16, 23): 79.0%; % T/C Day 36 ([4]; 25 mg/kg i.v. days 9, 16, 23): 85.9%; Complete Remission (number of animals) [4, 6]: 0; Non-Responsive (number of animals) [4, 6]: 11; Partial Remission (number of animals) [4, 6]: 1
